The values below come from patent US20130280204A1 (priority 2007, published 2013).

Read-outs that look alike come from different tables or passages of the source.

One experiment deals with influenza A/WSN/33 (WSN). In words: microbe, parasite or virus in culture. Format: cell-based, influenza A virus H1N1. To be noted: read-out: IC50 (nM 1) WSN.
Experiment [1] has as its system human influenza A/Wuhan/359/95 (Wuhan). In words: microbe, parasite or virus in culture. Format: cell-based, influenza A virus H3N2.
In experiment [2] the test system is avian influenza A/turkey/MN/833/80 (TKY). In words: microbe, parasite or virus in culture. Format: cell-based, influenza A virus H4N2.
For experiment [3], the target named is viral NA of TKY Wild-type (Influenza A virus (A/turkey/Minnesota/833/1980(H4N2)), UniProt Q20NP0). In kind it is biochemical. To be noted: read-out: Ki (nM, based on ZA) Wild-type.
Sequence of viral NA of TKY Wild-type (Influenza A virus (A/turkey/Minnesota/833/1980(H4N2)), UniProt Q20NP0) (Q20NP0 whole entry, looked up): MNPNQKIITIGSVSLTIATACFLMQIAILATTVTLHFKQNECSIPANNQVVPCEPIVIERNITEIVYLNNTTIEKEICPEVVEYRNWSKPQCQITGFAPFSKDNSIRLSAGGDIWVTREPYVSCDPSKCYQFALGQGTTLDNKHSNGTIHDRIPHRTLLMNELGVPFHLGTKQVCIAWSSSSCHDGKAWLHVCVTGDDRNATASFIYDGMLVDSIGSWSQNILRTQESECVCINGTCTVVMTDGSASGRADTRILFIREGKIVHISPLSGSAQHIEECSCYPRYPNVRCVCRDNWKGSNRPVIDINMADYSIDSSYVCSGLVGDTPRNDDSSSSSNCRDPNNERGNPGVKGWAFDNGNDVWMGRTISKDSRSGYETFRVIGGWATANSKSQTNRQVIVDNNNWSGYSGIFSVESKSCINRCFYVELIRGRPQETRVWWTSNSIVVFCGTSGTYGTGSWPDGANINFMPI
Experiment [4] concerns A/Nanchang/933/95 (Nanchang) virus. Also on record: species or system ferrets. To be noted: in vivo.
For a further experiment, the system named is TKY Drug-free p23 (DF23). Format: cell-based, influenza A virus H4N2. To be noted: read-out: IC50 (nM, based on ZA) Drug-free p23.
Experiment [5] addresses viral NA of TKY Drug-free p23 (DF23) (Influenza A virus (A/turkey/Minnesota/833/1980(H4N2)), UniProt Q20NP0). In kind it is biochemical. To be noted: read-out: Ki (nM, based on ZA) Drug-free p23.
The subject of another experiment is TKY Wild-type. Format: cell-based, influenza A virus H4N2. To be noted: read-out: IC50 (nM, based on ZA) Wild-type.
The next experiment has as its target active site of NA. To be noted: read-out: affinity constant for the active site of NA; cited from earlier work.
A further experiment concerns WSN strain. Also on record: species or system Balb/C mice. To be noted: mouse, in vivo.
The subject of experiment [6] is avian strain A/Turkey/MN/80 (TKY). Format: cell-based, influenza A virus H4N2.
Another experiment has as its system TKY virus. Format: cell-based, influenza A virus H4N2. To be noted: t=15 min.

Sequence of viral NA of TKY Drug-free p23 (DF23) (Influenza A virus (A/turkey/Minnesota/833/1980(H4N2)), UniProt Q20NP0) (Q20NP0 whole entry, looked up): as above

With `CC(=O)NC1C(NC(=N)N)C=C(C(=O)O)OC1C(OC(=O)Nc1ccc(CN)cc1)C(O)CO` (stereo not shown) [compound 4, 3-Acetamido-2-(1-(((4-(aminomethyl)phenyl)carbamoyl)oxy)-2,3-dihydroxypropyl)-4-guanidino-3,4-dihydro-2H-pyran-6-carboxylic acid], the IC50 was 76000 nM in the experiment with influenza A/WSN/33 (WSN), 840000 nM in [1] (read-out: IC50 (nM 1) Wuhan) and 2.3e+06 nM in experiment [2] (read-out: IC50 (nM 1) TKY).

Turning to `CC(=O)NC1C(NC(=N)N)C=C(C(=O)O)OC1C(OC(=O)NCCOCCN)C(O)CO` (stereo not shown) [compound 3, 3-Acetamido-2-(1-(((2-(2-aminoethoxy)ethyl)carbamoyl)oxy)-2,3-dihydroxypropyl)-4-guanidino-3,4-dihydro-2H-pyran-6-carboxylic acid], the IC50 was determined as 57000 nM in the experiment with influenza A/WSN/33 (WSN), 1.3e+06 nM in experiment [1] (read-out: IC50 (nM 1) Wuhan) and 1.4e+06 nM in experiment [2] (read-out: IC50 (nM 1) TKY).

Usually Ki stands for the dissociation constant of the complex between target and ligand, obtained from inhibition or displacement. In the case of `CC(=O)N[C@H]1[C@H]([C@H](O)[C@H](O)CO)OC(C(=O)O)=C[C@@H]1N=C(N)N` [compound 1, zanamivir], the results for the inhibition constant Ki in [3] and in experiment [5] were 5.3 ± 0.4 nM and 8.8 ± 5.6 nM, respectively. Besides, the “reduction in nasal wash viral titer compared to PBS controls, day 4 p.i.” value in [4] is listed as “did not”. For the same molecule, the “reduction in nasal wash viral titer compared to PBS controls, day 6 p.i.” value in experiment [4] is “did not”. The “reduction in nasal wash viral titer compared to PBS-treated group, day 2 p.i.” value in experiment [4] is recorded as 38 fold. The IC50 was 38 ± 31 nM in the experiment on TKY Drug-free p23 (DF23); 56 ± 8 nM with TKY Wild-type; 20000 nM in [1] (H3N2, read-out: IC50 (nM Sugar) Wuhan (H3N2)); 20000 nM in experiment [2] (H4N2, read-out: IC50 (nM Sugar) Turkey/WT (H4N2)). In addition, the Kd at active site of NA is 0.0001 to 0.001 µM. Further, in the experiment on WSN strain, the “drop of viral titers in lung homogenates vs untreated mice” value was 20 fold. In experiment [6], the “change of potency (IC50), early and late vs late only” value was “remained the same”.

Turning to `NC12CC3CC(CC(C3)C1)C2` [amantadine], the “viral particles inside the cells” value in the experiment on TKY virus is “accumulation of viral particles inside the cells”.
